According to the CheMixHub viscosity set:
± gives the uncertainty stated by the source.

Test: xn = mol fraction of the nth substance listed

O=S(=O)(O)CC(O)CN1CCOCC1 (stereo unspecified) + O
viscosity [mPa·s], 101.3 kPa
Conditions	x1 = 0.00371	x1 = 0.007201	x1 = 0.009661	x1 = 0.01079	x1 = 0.01403	x1 = 0.01784
298.15 K	0.942 ± 0.038	1.033 ± 0.042	1.078 ± 0.044	1.117 ± 0.045	1.197 ± 0.049	1.303 ± 0.053
308.15 K	0.761 ± 0.031	0.833 ± 0.034	0.871 ± 0.035	0.901 ± 0.037	0.966 ± 0.039	1.051 ± 0.043
318.15 K	0.631 ± 0.026	0.691 ± 0.028	0.721 ± 0.029	0.746 ± 0.03	0.798 ± 0.032	0.866 ± 0.035

CCC1CCCCC1 + CCCCCO
viscosity [mPa·s], 100 kPa
Conditions	x2 = 0.1003	x2 = 0.2013	x2 = 0.3005	x2 = 0.4001	x2 = 0.5004	x2 = 0.5995	x2 = 0.7009	x2 = 0.8003	x2 = 0.9007
293.15 K	0.91 ± 0.037	0.99 ± 0.041	1.108 ± 0.045	1.248 ± 0.051	1.489 ± 0.061	1.788 ± 0.073	2.169 ± 0.089	2.681 ± 0.11	3.292 ± 0.14
298.15 K	0.845 ± 0.035	0.915 ± 0.037	1.024 ± 0.042	1.177 ± 0.048	1.339 ± 0.055	1.613 ± 0.066	1.948 ± 0.08	2.339 ± 0.096	2.862 ± 0.12
303.15 K	0.785 ± 0.032	0.848 ± 0.035	0.943 ± 0.039	1.071 ± 0.044	1.21 ± 0.05	1.425 ± 0.058	1.724 ± 0.071	2.056 ± 0.084	2.495 ± 0.1
308.15 K	0.728 ± 0.03	0.778 ± 0.032	0.855 ± 0.035	0.942 ± 0.039	1.087 ± 0.045	1.263 ± 0.052	1.501 ± 0.061	1.796 ± 0.074	2.166 ± 0.089
313.15 K	0.682 ± 0.028	0.73 ± 0.03	0.801 ± 0.033	0.882 ± 0.036	0.998 ± 0.041	1.156 ± 0.047	1.337 ± 0.055	1.602 ± 0.066	1.92 ± 0.079
318.15 K	0.651 ± 0.027	0.693 ± 0.028	0.752 ± 0.031	0.834 ± 0.034	0.929 ± 0.038	1.061 ± 0.043	1.246 ± 0.051	1.454 ± 0.06	1.723 ± 0.071
323.15 K	0.61 ± 0.025	0.647 ± 0.026	0.697 ± 0.029	0.773 ± 0.032	0.849 ± 0.035	0.959 ± 0.039	1.115 ± 0.046	1.294 ± 0.053	1.529 ± 0.063
